Assay results as given in patent publication US9573972B2, “Nurotoxic sterol glycosides” (priority 2008, dated 2017).

How the values were obtained:
Assay type in all cases: in vivo, mouse
male CD-1 mice = experiment: Open field monitoring, SG-fed mice; conditions: SG-fed vs control
From the text: Five-month old male CD-1 mice (30.1-35.7 g, 7.5 cm-8.8 cm) were purchased from Charles River (Wilmington, Mass.). Adult mice were chosen to mimic the mean age of onset of ALS-PDC (Kurland, L. T. (1988a) Trends Neurosci. 11, 51-4; Kurland, L. T., et al. (1994) Amyotrophic lateral sclerosis-parkinsonism-dementia complex on Guam: epidemiologic and etiological perspectives. 109-131). Thirty mice for the SG study were randomly divided into 2 groups (14 control and 16 experimental animals). All animals were housed singly in a virus-free barrier facility in a room maintained at 22° C. under a 12 hour light/dark cycle. The mice were provided ad libitum access to food and water.
The synthetic SG was mixed with finely ground Purina Chow mouse pellets (Mouse Diet™, Purina) to create the experimental pellets with a SG content of 1000 μg per pellet. Dry materials were blended with a sterile silicon spatula. For every 5 g of standard feed, 2.5 mL of doubly-distilled water (dd)H2O was added and the dough was kneaded and round up into pellets. A single sterol glucoside containing pellet was placed in the feeding tray each morning before the addition of regular mouse chow (ad libitum). All experimental pellets were entirely consumed by the mice each day. Control mice were fed standard mouse chow pellets of identical weight with no additives. SG feeding was conducted daily for 15 weeks and mice were behaviorally monitored until sacrifice at 35 weeks (time point 1) or 52 weeks (time point 2).
Open field monitoring: Spontaneous activity in an open field is considered one of the most standardized general measures of motor function (Crawley, 2000). The open field test can also reveal stress response in animals (i.e. defensive burying or thigmotaxis) (Karl et al., Exp Toxicol Pathol., 2003, 55(1):69-83). Open field testing of each animal was conducted every two weeks. A single mouse was placed in one of four round open field arena/tubs (approximately 1 m diameter) to permit the testing of four animals per 5 minute trial. […] This in turn, increases the likelihood of detection of fear-based behavior (Crawley, 2000) and minimizes habituation of the animal to the open field (Crawley, 2000). Testing arenas were cleaned with 70% ethanol before the testing of each animal and with quatricide at the end of each testing session. Movements were recorded using a video camera mounted on the ceiling. Video clips were reviewed and were manually scored or automatically analysed on an automated video tracking software (Ethovision® 3.1, Noldus Information Technologies Inc., Leesburg, Va., USA). Scoring was done on videotaped sessions, rather than in-person at the time of testing to avoid the introduction of confounding variables by the presence of an observer in close proximity to the mice (Crawley, 2000).

[1] = tested on: choline acetyl transferase (ChAT) immunoreactive cells; experiment: Anti-ChAT immunofluorescence, cholinergic neuron counts; conditions: for Fewer cholinergic neurons than control: SG-fed; for Cholinergic neurons, change: ventral horn lumbar spinal cord, SG-fed vs control
Experimental: Tissue-mounted slides were processed for fluorescence microscopy as follows: Sections were rinsed in coplin jars for 45 minutes at room temperature (RT) in three changes of PBS. Sections were then incubated at RT for 30 minutes in a blocking permeabilization solution made of 5% normal goat serum (NGS), 5% normal rabbit serum (NRS) or 5% BlokHen II (Ayes Labs, Inc., Tigard, Oreg.), 0.05% Triton X-100 and PBS. Subsequently, the blocking solution was tipped off and the slides were rinsed in PBS for 2 minutes. Sections were then incubated overnight in a humidified chamber at 4° C. with a PBS buffered solution that contained 1% NGS or 1% NRS, 1% bovine serum albumin (BSA) and one of the following primary antibodies: (a) rabbit anti-human/mouse ATF-3 (H-90) IgG (polyclonal, 1:500; Santa Cruz Biotechnology, Inc., Santa Cruz, Calif.), (b) anti-activated caspase-3 IgG (monoclonal, 1:250; Chemicon International, Temecula, Calif.) (see FIG. 9), (c) goat antihuman/mouse choline acetyl transferase (ChAT) IgG (polyclonal, 1:100; Chemicon International, Temecula, Calif.) (see FIG. 6), (d) rabbit anti-mouse glial fibrillary acidic protein IgG (polyclonal, 1:250; GeneTex Inc., San Antonio, Tex.) (see FIG. 7), (e) rabbit antihuman/mouse ionized calcium binding adaptor molecule 1 (IBA-1) IgG (polyclonal, 1:500; Wako Pure Chemical Industries, Ltd, Richmond, Va.), (f) mouse anti-human/mouse clone AT8 PHF-1 Tau (monoclonal, 1:200; Pierce Biotechnology Inc., Rockford, Ill.), (g) rabbit anti-human/mouse TAR DNA-binding protein 43 (TDP43) (1:100; ProteinTech Group Inc., Chicago, Ill.) (See FIG. 14), (h) chicken anti-human/mouse β-tubulin 3 (TuJ1 antigen) (polyclonal, 1:100, Ayes Labs, Inc., Tigard, Oreg.), (i) rabbit anti-mouse tyrosine hydroxylase (polyclonal, 1:500, Chemicon International, Temecula, Calif. or polyclonal 1:1000, Affinity BioReagents, Golden, Colo.) (FIG. 10), (j) rabbit anti human/mouse anti-pJunscr73 IgG (polyclonal, 1:200; Chemicon International, Temecula, Calif.), (k) rabbit anti human/mouse anti-HSP-70 IgG (polyclonal, 1:200; Chemicon International, Temecula, Calif.), or (1) rabbit anti human/mouse anti-HSP-25 IgG (polyclonal, 1:100; Chemicon International, Temecula, Calif.). In each experiment, additional slides were incubated with the primary antibody and the secondary antibody omitted or with secondary antibody and primary antibody omitted to test for nonspecific staining. Where appropriate, positive control slides (Alzheimer's disease patient entorhinal cortex, obtained from Drs. Claudia Schwab and Patrick McGeer of the Kinsmen Laboratory, University of British Columbia, Vancouver, BC, Canada) were also processed as above for comparison. […]

[2] = tested on: Ionized calcium-binding adaptor molecule-1 (microglia); experiment: Anti-IBA-1 immunofluorescence, microglia counts; conditions: SG-fed group over time (35 to 52 wk)
Experimental: Tissue-mounted slides were processed for fluorescence microscopy as follows: Sections were rinsed in coplin jars for 45 minutes at room temperature (RT) in three changes of PBS. Sections were then incubated at RT for 30 minutes in a blocking permeabilization solution made of 5% normal goat serum (NGS), 5% normal rabbit serum (NRS) or 5% BlokHen II (Ayes Labs, Inc., Tigard, Oreg.), 0.05% Triton X-100 and PBS. Subsequently, the blocking solution was tipped off and the slides were rinsed in PBS for 2 minutes. […]

SMILES: CC[C@H](/C=C/[C@@H](C)[C@H]1CC[C@H]2[C@@H]3CC=C4C[C@@H](O[C@@H]5O[C@H](CO)[C@@H](O)[C@H](O)[C@H]5O)CC[C@]4(C)[C@H]3CC[C@]12C)C(C)C [SG, Stigmasterol β-D-Glucopyranoside]
- Total distance moved (male CD-1 mice; Time-point 1 (35 wk)): Total distance moved (ns)
- Total distance to zone border (male CD-1 mice; Time-point 1 (35 wk)): Total distance to zone border (ns)
- Total turn angle (male CD-1 mice; Time-point 1 (35 wk)): Total turn angle (ns)
- Total distance to zone border (male CD-1 mice; Time-point 2 (52 wk)): Total distance to zone border* (*p < 0.05)
- Fewer cholinergic neurons than control ([1]; 35 weeks): 18%
- Fewer cholinergic neurons than control ([1]; 52 weeks): 32%
- Cholinergic neurons, change ([1]; Time-point 1 (35 wk)): Cholinergic neurons (−18%)
- Cholinergic neurons, change ([1]; Time-point 2 (52 wk)): Cholinergic neurons (−32%)
- Anti-IBA-1 immunoreactive cells over time [2]: Anti-IBA-1 immunoreactive cells (SG-fed group over time) (ns)
